Source: patent US20110190130A1, “SYNERGISTIC HERBICIDAL COMPOSITION CONTAINING AMINOPYRALID AND 2,4-DICHLOROPHENOXYACETIC ACID” (DOW AGROSCIENCES LLC, priority 2010, published 2011)

Columns and labels:
Type in all cases: in vivo
[1] = system: purple nutsedge (Cyperus rotundus, CYPRO); assay: Postemergence herbicidal activity of mixtures under field conditions, purple nutsedge; details: 27 days after application, rice
Experimental: (§1) These trials were conducted under field conditions in Tolima, Colombia. Trial sites were located in commercially grown fields of common rice (Oryza sativa). The rice crop was grown using normal cultural practices for fertilization, seeding, and maintenance to ensure good growth of the crop and the weeds. The trials were conducted using normal research methodology. Trial plots were 3 meters (m) wide by 6 m long. All treatments were applied using a randomized complete block trial design with 4 replications per treatment. The trial sites had naturally occurring populations of weeds. The weed spectrum included, but was not limited to, rice flatsedge (Cyperus iria, CYPIR); purple nutsedge (Cyperus rotundus, CYPRO); and common purslane, (Portulaca oleracea, POROL). The plots were treated with a postemergence foliar application 15 to 20 days after emergence of the rice.
(§2) Treatments consisted of tank mixes of soluble granules of aminopyralid tri-isopropanolammonium salt and commercially available formulations of 2,4-D (DMA 6 herbicide, water dispersible granules). The application volume was 160 liters per hectare (L/ha) of water. All application were made using precision gas hand sprayers using a 3 m boom using flat fan) (80° nozzles to broadcast the treatments over the top of the rice.
(§3) The treated plots and control plots were rated blind at various intervals after application. Ratings were based of Percent (%) Visual weed control, where 0 corresponds to no injury and 100 corresponds to complete kill.
(§4) Colby's equation was used to determine the herbicidal effects expected from the mixtures (Colby, S. R. Calculation of the synergistic and antagonistic response of herbicide combinations. Weeds 1967 15, 20-22).
(§5) The following equation was used to calculate the expected activity of mixtures containing two active ingredients, A and B:
(§6) A=observed efficacy of active ingredient A at the same concentration as used in the mixture;
(§7) B=observed efficacy of active ingredient B at the same concentration as used in the mixture.

[2] = system: rice flatsedge (Cyperus iria, CYPIR); assay: Postemergence herbicidal activity of mixtures under field conditions, rice flatsedge; details: 27 days after application
Experimental: as §1, §2, §3, §4, §5, §6, §7

[3] = system: common purslane (Portulaca oleracea, POROL); assay: Postemergence herbicidal activity of mixtures under field conditions, common purslane; details: 27 days after application, rice
Experimental: as §1, §2, §3, §4, §5, §6, §7

[4] = aminopyralid 9 grams ae/ha alone
[5] = aminopyralid 12 grams ae/ha alone

Row | Compound | % Control CYPRO Obs ([1]; 2,4-D 180 grams ae/ha alone) [%] | % Control CYPRO Obs ([1]; 2,4-D 240 grams ae/ha alone) [%] | % Control CYPIR Obs ([2]; 2,4-D 180 grams ae/ha alone) [%] | % Control CYPIR Obs ([2]; 2,4-D 240 grams ae/ha alone) [%] | % Control POROL Obs ([3]; 2,4-D 180 grams ae/ha alone) [%] | % Control POROL Obs ([3]; 2,4-D 240 grams ae/ha alone) [%] | % Control CYPRO Obs [1, 4] [%] | % Control CYPRO Obs [1, 5] [%] | % Control CYPIR Obs [2, 4] [%] | % Control CYPIR Obs [2, 5] [%] | % Control POROL Obs [3, 4] [%] | % Control POROL Obs [3, 5] [%]
1 | O=C(O)COc1ccc(Cl)cc1Cl [2,4-D, 2,4-dichlorophenoxyacetic acid] | 38 | 60 | 45 | 46 | 20 | 39 | – | – | – | – | – | –
2 | Nc1cc(Cl)nc(C(=O)O)c1Cl [Aminopyralid, 4-amino-3,6-dichloro-2-pyridinecarboxylic acid] | – | – | – | – | – | – | 0 | 0 | 0 | 13 | 41 | 53
